In US10758534B2 (Vertex Pharmaceuticals Incorporated, priority 2014, dated 2020):

Target: T1, F508del (Homo sapiens, UniProt P13569, DEL508-508)
T1 construct: expressed in transfected cells
Experiment: Protocol 1: membrane potential optical assay (FLIPR III, voltage sensing dye), identification of potentiator compounds
Assay type: cell-based
Conditions: Table 3, compounds of Table 1
How it was run: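 Mouse NIH 3T3 fibroblasts stably expressing F508del, temperature-corrected at 27 °C for 24 h, pretreated with compound, then loaded with voltage-sensing redistribution dye. Forskolin was added in a single step with a chloride gradient (chloride-free gluconate bath; Bath Solution #1 HEPES pH 7.4). Membrane-potential fluorescence read on FLIPR III.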

T1 sequence (P13569 with tags, fused parts or gaps DEL508-508): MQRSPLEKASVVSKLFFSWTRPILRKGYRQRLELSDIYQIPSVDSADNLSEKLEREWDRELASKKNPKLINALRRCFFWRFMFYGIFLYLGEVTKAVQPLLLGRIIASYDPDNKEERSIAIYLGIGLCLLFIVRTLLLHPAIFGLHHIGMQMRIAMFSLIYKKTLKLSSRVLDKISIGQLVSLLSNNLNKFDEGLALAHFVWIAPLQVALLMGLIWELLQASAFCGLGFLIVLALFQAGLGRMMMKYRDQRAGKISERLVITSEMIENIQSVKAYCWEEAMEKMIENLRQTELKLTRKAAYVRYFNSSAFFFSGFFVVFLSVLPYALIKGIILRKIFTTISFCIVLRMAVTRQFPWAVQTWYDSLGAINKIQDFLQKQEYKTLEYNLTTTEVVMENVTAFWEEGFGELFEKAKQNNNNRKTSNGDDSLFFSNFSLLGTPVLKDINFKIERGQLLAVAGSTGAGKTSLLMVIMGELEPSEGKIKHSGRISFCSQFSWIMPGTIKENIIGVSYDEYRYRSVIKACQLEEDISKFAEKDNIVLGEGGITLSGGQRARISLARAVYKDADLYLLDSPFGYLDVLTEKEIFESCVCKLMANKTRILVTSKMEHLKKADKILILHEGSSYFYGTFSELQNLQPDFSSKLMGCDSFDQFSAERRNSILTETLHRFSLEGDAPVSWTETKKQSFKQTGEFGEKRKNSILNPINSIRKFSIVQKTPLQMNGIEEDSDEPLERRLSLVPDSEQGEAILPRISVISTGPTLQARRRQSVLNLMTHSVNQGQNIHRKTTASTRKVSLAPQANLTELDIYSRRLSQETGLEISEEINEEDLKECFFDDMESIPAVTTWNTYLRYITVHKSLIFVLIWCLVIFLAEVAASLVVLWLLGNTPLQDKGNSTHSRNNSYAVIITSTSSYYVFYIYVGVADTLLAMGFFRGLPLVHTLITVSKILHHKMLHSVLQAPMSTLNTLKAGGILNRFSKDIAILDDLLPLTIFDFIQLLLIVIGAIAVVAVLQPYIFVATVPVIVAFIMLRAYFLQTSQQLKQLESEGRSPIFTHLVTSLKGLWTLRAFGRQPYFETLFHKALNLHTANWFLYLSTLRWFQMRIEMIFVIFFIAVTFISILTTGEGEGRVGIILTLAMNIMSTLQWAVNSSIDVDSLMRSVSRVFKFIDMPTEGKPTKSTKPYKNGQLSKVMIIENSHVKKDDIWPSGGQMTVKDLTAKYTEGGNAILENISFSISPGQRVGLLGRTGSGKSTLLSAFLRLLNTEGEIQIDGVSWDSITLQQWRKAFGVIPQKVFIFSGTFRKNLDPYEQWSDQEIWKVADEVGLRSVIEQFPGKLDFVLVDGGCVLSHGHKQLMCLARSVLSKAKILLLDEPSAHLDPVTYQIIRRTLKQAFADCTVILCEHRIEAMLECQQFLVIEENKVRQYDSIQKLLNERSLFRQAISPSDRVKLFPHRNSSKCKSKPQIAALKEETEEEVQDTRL

Compound	EC30
CCC1CC=C(c2ccc(C(=O)NS(=O)(=O)c3cccc(N)n3)c(Oc3c(C)cc(C)cc3C)n2)CC1 (centres unmarked) [Compound 1370, N-[(6-amino-2-pyridyl)sulfonyl]-6-(4-ethylcyclohexen-1-yl)-2-(2,4,6-trimethylphenoxy)pyridine-3-carboxamide]	+++ (“+++” means <3 uM)
C[C@@H]1CN(c2nc(C3=CCCN(C(=O)OC(C)(C)C)C3)ccc2C(=O)NS(=O)(=O)c2cccc(N)n2)C(C)(C)C1 [Compound 1371, tert-butyl 5-[5-[(6-amino-2-pyridyl)sulfonylcarbamoyl]-6-[(4S)-2,2,4-trimethylpyrrolidin-1-yl]-2-pyridyl]-3,6-dihydro-2H-pyridine-1-carboxylate]	+++ (“+++” means <3 uM)
CCOc1cccc2c1CN(Cc1c(C)cc(C)cc1C)[C@]2(C)C(=O)NS(=O)(=O)c1cccc(N)n1 [Compound 1372, (1S)—N-[(6-amino-2-pyridyl)sulfonyl]-4-ethoxy-1-methyl-2-[(2,4,6-trimethylphenyl)methyl]isoindoline-1-carboxamide]	+++ (“+++” means <3 uM)
C=Cc1cc(C(=O)NS(=O)(=O)c2cccc(N)n2)c(N2C[C@@H](C)CC2(C)C)nc1C(C)(C)C [Compound 1373, N-[(6-amino-2-pyridyl)sulfonyl]-6-tert-butyl-2-[(4S)-2,2,4-trimethylpyrrolidin-1-yl]-5-vinyl-pyridine-3-carboxamide]	+++ (“+++” means <3 uM)
CC(C)COc1cc(F)cc(-c2ccc(C(=O)NS(=O)(=O)c3cccc(N)n3)c(OC(C)C3CCCC3)n2)c1 (centres unmarked) [Compound 1374, N-[(6-amino-2-pyridyl)sulfonyl]-2-(1-cyclopentylethoxy)-6-(3-fluoro-5-isobutoxy-phenyl)pyridine-3-carboxamide]	+++ (“+++” means <3 uM)
CC(C)Oc1ccc(-c2ccc(C(=O)NS(=O)(=O)c3ccc(O)c(N)n3)c(N3[C@H](C)CC[C@@H]3C)n2)cn1 [Compound 1375, N-[(6-amino-5-hydroxy-2-pyridyl)sulfonyl]-2-[(2S,5R)-2,5-dimethylpyrrolidin-1-yl]-6-(6-isopropoxy-3-pyridyl)pyridine-3-carboxamide]	++ (“++” means between 3 uM and 10 uM)
Cc1cc(C)c(Oc2nc(C3CCCCCC3)ccc2C(=O)NS(=O)(=O)c2cccc(N)n2)c(C)c1 [Compound 1376, N-[(6-amino-2-pyridyl)sulfonyl]-6-cycloheptyl-2-(2,4,6-trimethylphenoxy)pyridine-3-carboxamide]	+++ (“+++” means <3 uM)
CCCC/C=C/c1cc(C(=O)NS(=O)(=O)c2cccc(N)n2)c(N2C[C@@H](C)CC2(C)C)nc1C(C)(C)C [Compound 1377, N-[(6-amino-2-pyridyl)sulfonyl]-6-tert-butyl-5-[(E)-hex-1-enyl]-2-[(4S)-2,2,4-trimethylpyrrolidin-1-yl]pyridine-3-carboxamide]	+++ (“+++” means <3 uM)

Next, values leading:

EC30	Compound
+++ (“+++” means <3 uM)	C[C@@H]1CN(c2nc(C3CC4CCC3C4)ccc2C(=O)NS(=O)(=O)c2cccc(N)n2)C(C)(C)C1 (stereo partly drawn) [Compound 1378, NV [(6-amino-2-pyridyl)sulfonyl]-6-norbornan-2-yl-2-[(4S)-2,2,4-trimethylpyrrolidin-1-yl]pyridine-3-carboxamide]
+++ (“+++” means <3 uM)	C[C@@H]1CN(c2nc(/C=C/C3CC3)ccc2C(=O)NS(=O)(=O)c2cccc(N)n2)C(C)(C)C1 [Compound 1379, N-[(6-amino-2-pyridyl)sulfonyl]-6-[(E)-2-cyclopropylvinyl]-2-[(4S)-2,2,4-trimethylpyrrolidin-1-yl]pyridine-3-carboxamide]
+++ (“+++” means <3 uM)	C[C@@H]1CN(c2nc(C(C)(C)C)c(C3=CCC(C(F)(F)F)CC3)cc2C(=O)NS(=O)(=O)c2cccc(N)n2)C(C)(C)C1 (stereo partly drawn) [Compound 1380, N-[(6-amino-2-pyridyl)sulfonyl]-6-tert-butyl-5-[4-(trifluoromethyl)cyclohexen-1-yl]-2-[(4S)-2,2,4-trimethylpyrrolidin-1-yl]pyridine-3-carboxamide]
